Where a SMILES comes first, the peptide text is derived from it. [ ]: non-standard residue; d: D form. The star is where a group is joined. NHCH2CH2OH = OCCN*; For = O=C*
How the values were obtained:
[1] = tested on: Streptococcus pyogenes SSI-9; test: Antibacterial activity assay of bead-derived peptides (three concentrations); format: cell-based; parameters: key: +++: inhibition by the 640-fold diluted peptide solution; ++: inhibition by the 160-fold diluted solution; +: inhibition by the 40-fold diluted solution; -: no inhibition; conditions: S. pyogenes, bead-derived peptide solution, three concentrations
Procedure, shortened: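 Bead-derived library peptide stocks in DMSO were tested undiluted and after 4- and 16-fold DMSO dilution against S. pyogenes SSI-9 (2 × 10^5 CFU/well) in cation-adjusted Mueller Hinton Broth with 5% laked horse blood. After 18 h at 37 °C, wells were scored for precipitation of grown cells.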

[2] = tested on: P388 mouse leukemia cells; conditions: 92 h
Procedure, shortened: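 First, library peptide stocks are diluted 250-fold in RPMI1640 with 10% heat-inactivated FBS. Next, they are mixed with P388 cells to give 1 × 10^4 cells/mL and incubated 92 h at 37 °C, 5% CO2. Finally, viability (%) is scored by WST-1 absorbance at 415 nm.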

[3] = H+/Na+ transport assay of bead-derived peptides (one-point); format: biochemical; parameters: key: relative activity; mean of two control wells = 1.00; conditions: bead-derived peptide solution, EYPC/EYPG LUVs;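 also: relative to parent gramicidin A activity set to 1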
Procedure, shortened: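 One-point screen: peptide + pyranine-loaded LUVs, 30 min RT with vortexing, 96-well. Read-out is fluorescence intensity scaled as 100 × (Ix – I0)/(Imax – I0). Imax from Triton X-100, I0 from untreated vesicles, and the mean of the two control wells is set to 1.00.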

| Compound | antibacterial activity [1] | cell viability/% [2] [%] | H+/Na+ transport activity normalized against the value of 1 (1.00) [3] |
| --- | --- | --- | --- |
| CC(C)C[C@@H](NC(=O)[C@H](C)NC(=O)CNC(=O)[C@@H](NC=O)C(C)C)C(=O)N[C@@H](C)C(=O)N[C@@H](C(=O)N[C@H](C(=O)N[C@@H](C(=O)N[C@@H](Cc1c[nH]c2ccccc12)C(=O)N[C@@H](C(=O)N[C@@H](Cc1c[nH]c2ccccc12)C(=O)N[C@@H](C(=O)N[C@@H](Cc1c[nH]c2ccccc12)C(=O)N[C@H](CC(C)C)C(=O)N[C@@H](Cc1c[nH]c2ccccc12)C(=O)NCCO)C(C)C)C(C)C)[C@H](C)O)C(C)C)C(C)C [compound 4493] (For-VGA[dL]A[dV]V[dT]W[dV]W[dV]W[dL]W-NHCH2CH2OH) | - | 100.0 | 1.19 |
| CNC(=O)C[C@@H](NC(=O)[C@H](C)NC(=O)[C@@H](CC(C)C)NC(=O)[C@H](C)NC(=O)CNC(=O)[C@@H](NC=O)C(C)C)C(=O)N[C@H](C(=O)N[C@@H](C(=O)N[C@@H](Cc1c[nH]c2ccccc12)C(=O)N[C@H](CC(C)C)C(=O)N[C@@H](Cc1c[nH]c2ccccc12)C(=O)N[C@@H](C(=O)N[C@@H](Cc1c[nH]c2ccccc12)C(=O)N[C@H](CC(C)C)C(=O)N[C@@H](Cc1c[nH]c2ccccc12)C(=O)NCCO)C(C)C)C(C)C)C(C)C [compound 8535] (For-VGA[dL]A[dD](NHMe)V[dV]W[dL]W[dV]W[dL]W-NHCH2CH2OH) | - | 71.4 | 1.28 |
| CC(C)C[C@@H](NC(=O)[C@H](C)NC(=O)[C@H](NC(=O)[C@H](C)NC(=O)CNC(=O)[C@@H](NC=O)C(C)C)C(C)C)C(=O)N[C@H](C(=O)N[C@@H](C(=O)N[C@@H](Cc1c[nH]c2ccccc12)C(=O)N[C@@H](C(=O)N[C@@H](Cc1c[nH]c2ccccc12)C(=O)N[C@H](CC(C)C)C(=O)N[C@@H](Cc1c[nH]c2ccccc12)C(=O)N[C@H](CC(C)C)C(=O)N[C@@H](Cc1c[nH]c2ccccc12)C(=O)NCCO)[C@H](C)O)[C@H](C)O)C(C)C [compound 8374] (For-VGA[dV]A[dL]V[dT]W[dT]W[dL]W[dL]W-NHCH2CH2OH) | - | 66.4 | 1.02 |
| CC(C)C[C@@H](NC(=O)[C@H](C)NC(=O)[C@H](NC(=O)[C@H](C)NC(=O)CNC(=O)[C@@H](NC=O)C(C)C)C(C)C)C(=O)N[C@H](C(=O)N[C@H](CC(C)C)C(=O)N[C@@H](Cc1c[nH]c2ccccc12)C(=O)N[C@H](CC(C)C)C(=O)N[C@@H](Cc1c[nH]c2ccccc12)C(=O)N[C@H](CC(C)C)C(=O)N[C@@H](Cc1c[nH]c2ccccc12)C(=O)N[C@@H](C(=O)N[C@@H](Cc1c[nH]c2ccccc12)C(=O)NCCO)[C@H](C)O)C(C)C [compound 3365] (For-VGA[dV]A[dL]V[dL]W[dL]W[dL]W[dT]W-NHCH2CH2OH) | + | 100.0 | 1.03 |
| CC(C)C[C@@H](NC(=O)[C@H](C)NC(=O)[C@H](NC(=O)[C@H](C)NC(=O)CNC(=O)[C@@H](NC=O)C(C)C)[C@H](C)O)C(=O)N[C@H](C(=O)N[C@H](CC(C)C)C(=O)N[C@@H](Cc1c[nH]c2ccccc12)C(=O)N[C@@H](C(=O)N[C@@H](Cc1c[nH]c2ccccc12)C(=O)N[C@H](CC(C)C)C(=O)N[C@@H](Cc1c[nH]c2ccccc12)C(=O)N[C@@H](C(=O)N[C@@H](Cc1c[nH]c2ccccc12)C(=O)NCCO)C(C)C)C(C)C)C(C)C [compound 6797] (For-VGA[dT]A[dL]V[dL]W[dV]W[dL]W[dV]W-NHCH2CH2OH) | - | 100.0 | 1.02 |
| CNC(=O)C[C@@H](NC(=O)[C@@H](NC(=O)[C@@H](CC(C)C)NC(=O)[C@H](C)NC(=O)[C@@H](CC(C)C)NC(=O)[C@H](C)NC(=O)CNC(=O)[C@@H](NC=O)C(C)C)C(C)C)C(=O)N[C@@H](Cc1c[nH]c2ccccc12)C(=O)N[C@H](CC(C)C)C(=O)N[C@@H](Cc1c[nH]c2ccccc12)C(=O)N[C@H](CC(C)C)C(=O)N[C@@H](Cc1c[nH]c2ccccc12)C(=O)N[C@@H](C(=O)N[C@@H](Cc1c[nH]c2ccccc12)C(=O)NCCO)[C@H](C)O [compound 638] (For-VGA[dL]A[dL]V[dD](NHMe)W[dL]W[dL]W[dT]W-NHCH2CH2OH) | - | 100.0 | 1.01 |
| CC(C)C[C@@H](NC(=O)[C@H](Cc1c[nH]c2ccccc12)NC(=O)[C@H](NC(=O)[C@H](Cc1c[nH]c2ccccc12)NC(=O)[C@@H](CC(C)C)NC(=O)[C@H](Cc1c[nH]c2ccccc12)NC(=O)[C@H](NC(=O)[C@@H](NC(=O)[C@H](NC(=O)[C@H](C)NC(=O)[C@H](NC(=O)[C@H](C)NC(=O)CNC(=O)[C@@H](NC=O)C(C)C)C(C)C)C(C)C)C(C)C)C(C)C)[C@H](C)O)C(=O)N[C@@H](Cc1c[nH]c2ccccc12)C(=O)NCCO [compound 1849] (For-VGA[dV]A[dV]V[dV]W[dL]W[dT]W[dL]W-NHCH2CH2OH) | + | 100.0 | 1.07 |
| CNC(=O)C[C@@H](NC(=O)[C@@H](NC(=O)[C@H](NC(=O)[C@H](C)NC(=O)[C@H](NC(=O)[C@H](C)NC(=O)CNC(=O)[C@@H](NC=O)C(C)C)C(C)C)C(C)C)C(C)C)C(=O)N[C@@H](Cc1c[nH]c2ccccc12)C(=O)N[C@H](CC(C)C)C(=O)N[C@@H](Cc1c[nH]c2ccccc12)C(=O)N[C@H](CC(C)C)C(=O)N[C@@H](Cc1c[nH]c2ccccc12)C(=O)N[C@@H](C(=O)N[C@@H](Cc1c[nH]c2ccccc12)C(=O)NCCO)C(C)C [compound 5771] (For-VGA[dV]A[dV]V[dD](NHMe)W[dL]W[dL]W[dV]W-NHCH2CH2OH) | - | 79.3 | 1.46 |
| CC(C)C[C@@H](NC(=O)[C@@H](NC(=O)[C@H](NC(=O)[C@H](C)NC(=O)[C@H](NC(=O)[C@H](C)NC(=O)CNC(=O)[C@@H](NC=O)C(C)C)[C@H](C)O)C(C)C)C(C)C)C(=O)N[C@@H](Cc1c[nH]c2ccccc12)C(=O)N[C@@H](C(=O)N[C@@H](Cc1c[nH]c2ccccc12)C(=O)N[C@@H](C(=O)N[C@@H](Cc1c[nH]c2ccccc12)C(=O)N[C@@H](C(=O)N[C@@H](Cc1c[nH]c2ccccc12)C(=O)NCCO)C(C)C)C(C)C)C(C)C [compound 5623] (For-VGA[dT]A[dV]V[dL]W[dV]W[dV]W[dV]W-NHCH2CH2OH) | - | 80.0 | 1.11 |
| CC(C)C[C@@H](NC(=O)[C@H](C)NC(=O)CNC(=O)[C@@H](NC=O)C(C)C)C(=O)N[C@@H](C)C(=O)N[C@@H](C(=O)N[C@H](C(=O)N[C@@H](C(=O)N[C@@H](Cc1c[nH]c2ccccc12)C(=O)N[C@H](CC(C)C)C(=O)N[C@@H](Cc1c[nH]c2ccccc12)C(=O)N[C@@H](C(=O)N[C@@H](Cc1c[nH]c2ccccc12)C(=O)N[C@H](CC(C)C)C(=O)N[C@@H](Cc1c[nH]c2ccccc12)C(=O)NCCO)C(C)C)[C@H](C)O)C(C)C)C(C)C [compound 12185] (For-VGA[dL]A[dV]V[dT]W[dL]W[dV]W[dL]W-NHCH2CH2OH) | + | 98.1 | 1.02 |
| CNC(=O)C[C@@H](NC(=O)[C@H](Cc1c[nH]c2ccccc12)NC(=O)[C@H](NC(=O)[C@H](Cc1c[nH]c2ccccc12)NC(=O)[C@H](NC(=O)[C@H](Cc1c[nH]c2ccccc12)NC(=O)[C@H](NC(=O)[C@@H](NC(=O)[C@@H](CC(C)C)NC(=O)[C@H](C)NC(=O)[C@H](NC(=O)[C@H](C)NC(=O)CNC(=O)[C@@H](NC=O)C(C)C)C(C)C)C(C)C)C(C)C)C(C)C)C(C)C)C(=O)N[C@@H](Cc1c[nH]c2ccccc12)C(=O)NCCO [compound 7479] (For-VGA[dV]A[dL]V[dV]W[dV]W[dV]W[dD](NHMe)W-NHCH2CH2OH) | - | 100.0 | 1.00 |
| CNC(=O)C[C@@H](NC(=O)[C@@H](NC(=O)[C@H](NC(=O)[C@H](C)NC(=O)[C@@H](CC(C)C)NC(=O)[C@H](C)NC(=O)CNC(=O)[C@@H](NC=O)C(C)C)C(C)C)C(C)C)C(=O)N[C@@H](Cc1c[nH]c2ccccc12)C(=O)N[C@H](CC(C)C)C(=O)N[C@@H](Cc1c[nH]c2ccccc12)C(=O)N[C@@H](C(=O)N[C@@H](Cc1c[nH]c2ccccc12)C(=O)N[C@H](CC(C)C)C(=O)N[C@@H](Cc1c[nH]c2ccccc12)C(=O)NCCO)C(C)C [compound 2881] (For-VGA[dL]A[dV]V[dD](NHMe)W[dL]W[dV]W[dL]W-NHCH2CH2OH) | - | 100.0 | 1.16 |
| CC(C)C[C@@H](NC(=O)[C@H](Cc1c[nH]c2ccccc12)NC(=O)[C@H](NC(=O)[C@H](Cc1c[nH]c2ccccc12)NC(=O)[C@H](NC(=O)[C@H](Cc1c[nH]c2ccccc12)NC(=O)[C@@H](CC(C)C)NC(=O)[C@@H](NC(=O)[C@H](NC(=O)[C@H](C)NC(=O)[C@H](NC(=O)[C@H](C)NC(=O)CNC(=O)[C@@H](NC=O)C(C)C)[C@H](C)O)C(C)C)C(C)C)C(C)C)C(C)C)C(=O)N[C@@H](Cc1c[nH]c2ccccc12)C(=O)NCCO [compound 2532] (For-VGA[dT]A[dV]V[dL]W[dV]W[dV]W[dL]W-NHCH2CH2OH) | - | 100.0 | 1.22 |

Source: paper PMC7531004, “Discovery of gramicidin A analogues with altered activities by multidimensional screening of a one-bead-one-compound library” (Nature Communications, 2020)
